Series [1] deals with T1, UGT 76G1 and EUGT11 (Stevia rebaudiana, UniProt Q6VAB4).
T1 construct: made in house; host or cells: E. coli XjB-autolysis BL21(DE3), pET30 vector, crude lysate
T1 sequence (Q6VAB4 1-458): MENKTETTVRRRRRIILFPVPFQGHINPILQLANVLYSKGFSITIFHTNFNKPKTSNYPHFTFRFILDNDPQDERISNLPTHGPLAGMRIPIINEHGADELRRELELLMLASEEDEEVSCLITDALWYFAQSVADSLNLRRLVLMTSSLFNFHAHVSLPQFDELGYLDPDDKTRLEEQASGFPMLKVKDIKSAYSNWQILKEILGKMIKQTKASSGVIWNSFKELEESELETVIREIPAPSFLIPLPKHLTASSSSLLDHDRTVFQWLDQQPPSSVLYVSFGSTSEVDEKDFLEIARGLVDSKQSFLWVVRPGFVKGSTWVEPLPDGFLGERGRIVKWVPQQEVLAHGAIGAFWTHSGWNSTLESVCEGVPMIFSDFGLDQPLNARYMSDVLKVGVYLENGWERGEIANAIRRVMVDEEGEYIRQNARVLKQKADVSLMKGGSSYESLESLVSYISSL
The experiment in a line: Bioconversion of steviol glycosides with crude UGT enzyme preparations expressed in E. coli, LC-UV analysis. It counts as biochemical. The settings on record: UGT clone 76G1; 2 mM substrate fed, overnight at 30° C. On the procedure:
The wildtype genes for UGTs EUGT11 and 76G1 are cloned individually into E. coli XjB-autolysis BL21(DE3) cells using the pET30 vector system from Novagen (EMD4 Biosciences, Madison, Wis.). All vectors use an IPTG-inducible promoter. Plasmid DNA is transformed into chemically competent cells as described by the vendor.
For in vitro assays, transformants displaying the desired antibiotic resistance are grown overnight at 30° C. in 2 mL cultures using NZCYM-media and antibiotic. The following day, the cultures are induced to a final concentration of 0.3 mM IPTG and 3 mM arabinose, and grown for 24 h at 20° C. The cells are then harvested by centrifugation at 4000 rpm for […] and resuspended in 200 μL GT-buffer (RBC Bioscience) and 3 tablets/100 ml of Complete mini, protease inhibitor (Roche), transferred to Eppendorf tubes, vortexed and frozen at −80° C. for 1.5 hour. Cells are thawed on ice, and left at room temperature for 3 minutes. When approximately half-way thawed, 15 μl of 0.14 mg/ml H2O DNase solution+30 μl 0.05M MgCl2 is added to each tube and the samples are incubated for approximately 5 minutes at room temperature. The cells are centrifuged at maximum speed for 5 minutes. One-hundred μL of supernatant (lysate) is transferred to fresh microfuge tubes, and 100 μL of glycerol is added. […]

The conditions of series [2]: in vivo; cited from earlier work.
For series [3] the following is noted: cited from earlier work.
Series [4] is described as follows: Instantaneous solubility: vigorous mixing with deionized water for 10 minutes at room temperature. The settings on record: for concentration of the rebaudioside in the instantaneously soluble 0.37% solution of the fermentation composition: room temperature water; for instantaneous solubility: water, room temperature. It counts as physicochemical. The procedure: The composition can optionally be expressed in terms of the concentration of one or more steviol glycoside(s). […] Clear solutions without precipitates are considered soluble. Unless indicated otherwise herein, the term “solubility” refers to “equilibrium solubility.”
Instantaneous solubility is determined by mixing steviol glycoisde with deionized water vigorously for 10 minutes at room temperature. […] Clear solutions without precipitates are considered soluble.

Series [5] is described as follows: Equilibrium solubility: heating in deionized water at 80° C. for 15 minutes, cooling to room temperature, observation up to 4 days. It counts as physicochemical. Details: key to equilibrium solubility at stated concentration: Clear solutions without precipitates are considered soluble. The source says: The composition can optionally be expressed in terms of the concentration of one or more steviol glycoside(s). […] Clear solutions without precipitates are considered soluble. Unless indicated otherwise herein, the term “solubility” refers to “equilibrium solubility.” […]

As to `C=C1C[C@@]23CC[C@H]4[C@@](C)(CCC[C@@]4(C)C(=O)O[C@@H]4O[C@H](CO)[C@@H](O)[C@H](O)[C@H]4O[C@@H]4O[C@H](CO)[C@@H](O)[C@H](O)[C@H]4O)[C@@H]2CC[C@]1(O[C@@H]1O[C@H](CO)[C@@H](O)[C@H](O[C@@H]2O[C@H](CO)[C@@H](O)[C@H](O)[C@H]2O)[C@H]1O[C@@H]1O[C@H](CO)[C@@H](O)[C@H](O)[C@H]1O)C3` [Reb D, rebaudioside D], the Products result in series [1] is recorded as “Rebaudioside M, various”. In addition, the sweetness characteristics entry in series [2] was “slow onset of sweetness and was very clean”. For the same molecule, the “times sweeter than sucrose (sugar)” value in series [2] is recorded as 200-220 times. Besides, the “amount that can be solubilized in water” value in series [3] (23° C.) is recorded as 300 to 450 ppm. The “aqueous solubility in words” value in series [3] is listed as “low solubility in water at room temperature”. Moreover, the “instantaneous solubility at stated concentration” value in series [4] (0.08%), in series [4] (0.10%), in series [4] (0.15%) and in series [4] (0.20%) was “insoluble” throughout. The “improvement (increase) in instantaneous solubility over the pure rebaudioside” value in series [4] (in the presence of compounds SG101-104 (fermentation derived composition)) was 75%. Moreover, the “concentration of the rebaudioside in the instantaneously soluble 0.37% solution of the fermentation composition” value in series [4] is on record as 0.14%; in series [4] (listed as reb D) it was “about 0.14%”. Moreover, the instantaneous solubility is less than 0.08% in series [4] and “less than 0.08%” in series [4] (listed as rebaudioside D). Further, the “equilibrium solubility at stated concentration” value in series [5] (0.08%) was “soluble”; in series [5] (0.10%), “insoluble”; in series [5] (0.15%), “insoluble”; in series [5] (0.20%) it was “insoluble”. In series [5] (after 80° C. for 15 minutes, at room temperature, up to 4 days), the equilibrium solubility was 0.08%.

The record behind these values is US20220304349A1, “Steviol Glycoside Compositions for Oral Ingestion or Use” (CARGILL, Incorporated, priority 2016, published 2022).
